{
  "source": "patent US12186304B2",
  "about": "“Method for treating cancer by combination of IAP inhibitor and modulator of immune checkpoint molecule” (ASCENTAGE PHARMA (SUZHOU) CO., LTD., priority 2018, dated 2025)",
  "key": {"MC38 colon cancer": {"system": "MC38 colon cancer", "experiment": "Tumor growth in MC38 homologous mouse colon cancer model", "type": "in vivo", "description": "Cell inoculation method was used to establish a […] tumor-immunized normal mouse subcutaneous homograft tumor model: tumor cells in logarithmic growth phase were collected, counted, and then resuspended in 1×PBS. The concentration of the cell suspension was adjusted to 2.5-5×10^7/mL. Tumor cells, 5-10×10^6/0.2 mL/mouse, were inoculated subcutaneously in the right back of the immunized normal mouse with a 1 mL syringe ([…]). All animal experimental operations were strictly in accordance with standards for use and management of laboratory animals by Gima Gene Co., Ltd and Suzhou Yasheng Pharmaceutical Co., Ltd. Relevant parameters were calculated with reference to China's NMPA “Guidelines for Non-clinical Research Techniques of Cytotoxic Antitumor Drugs”.\nTumor volume (TV) was calculated as TV=a×b^2/2, wherein a and b represented the length and width of tumor measurement, respectively.\nRelative tumor volume (RTV) was calculated as RTV=Vt/V1, wherein V1 was the tumor volume at the time of grouping administration, and Vt was the tumor volume measured on day t after administration.\nThe evaluation index of anti-tumor activity was relative tumor proliferation rate T/C (%), and was calculated as: relative tumor proliferation rate T/C (%)=(TRTV/CRTV)×100%, wherein TRTV was RTV in treatment group, and CRTV was RTV in vehicle control group. […]"}, "[1]": {"system": "Murine MC38 colon cancer cells", "experiment": "Subcutaneous xenograft model of murine MC38 colon cancer", "type": "in vivo, female C57BL/6 mice", "conditions": "MC38 s.c.", "protocol": "• (1) APG-1387: provided by Jiangsu Ascentage Pharmaceutical Development Co., Ltd. The batch number is R12JA076140-A2 and PAPG-1387-DP-201305A. Preserved at 4° C., away from the light and sealed. APG-1387 was administered intravenously (i.v.) or intraperitoneally (i.p.) or at a dosage of 10 mL/kg. APG-1387 was dissolved in 5% castor oil/10% PEG400/85% normal saline. • (2) Anti-PD-1 antibody: purchased from BioXcell. The article number is BE0146 and BE0273. Preserved at 4° C. and sealed. The anti-PD-1 antibody was administered intraperitoneally at a concentration of 100 μg per mice or 200 μg per mice. • (3) Isotype control (anti-IgG): purchased from BioXcell, the product number is BE0089. […]\nThe mice were injected subcutaneously with 0.5-10×10^6 cells or in the ovary with 6×10^6 cells in situ to build the tumor xenograft model. […] For the orthotopic model, tumor growth was measured by examining in vivo fluorescence images 10 days after inoculation. […] Body weight and tumor size were measured twice per week during the experiment. […]\nUsing the fluorescence imaging technique, the strength of the fluorescent signal can represent the growth and metastasis of tumors in vivo.\nThe tumor growth curve and the animal body weight curve were plotted, with time on the X-axis and tumor volume and animal body weight on the Y-axis. […] All data were analyzed using SPSS 18.0 (*P<0.05, **P<0.01, ***P<0.001, ****P<0.0001)."}},
  "data": [
    {"smiles": "CN[C@@H](C)C(=O)N[C@H]1CN(S(=O)(=O)c2cccc(S(=O)(=O)N3CC[C@H]4CC[C@@H](C(=O)NC(c5ccccc5)c5ccccc5)N4C(=O)[C@@H](NC(=O)[C@H](C)NC)C3)c2)CC[C@H]2CC[C@@H](C(=O)NC(c3ccccc3)c3ccccc3)N2C1=O", "note": "[APG-1387]", "values": [
      {"measurement": "RTV on day 14 after administration", "setting": "MC38 colon cancer; APG-1387 0.2 mg/kg i.v., anti-PD-1 5 mg/kg i.p., twice weekly, 2 times", "value": "11.0 ± 1.2"},
      {"measurement": "T/C (%) value on day 14 after administration", "setting": "MC38 colon cancer; day 14", "value": 70, "unit": "%"},
      {"measurement": "median survival time", "setting": "[1]", "value": 33.0, "unit": "days"},
      {"measurement": "T/C value on the 22nd day after administration", "setting": "[1]; APG-1387 0.2 mg/kg i.v., anti-PD-1 100 μg/mouse i.p., q3d x 2 doses", "value": 69.6, "unit": "%"}
    ]}
  ]
}
